The values that follow come from US20230391772A1, “METHODS AND COMPOSITIONS FOR TARGETED PROTEIN DEGRADATION” (Ranok Therapeutics (Hangzhou) Co. Ltd., priority 2020, published 2023).

Experiment [1] deals with MIA PaCa-2 human pancreatic carcinoma. Nature of the experiment: MIA PaCa-2 CCK-8 proliferation assay. Format: cell-based. To be noted: Homo sapiens, MIA PaCa-2, 72 h, MIA PaCa-2 cells. Put shortly: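 KRAS(G12C) lines were used: MIA PaCa-2 with 2 copies, and NCI-H358 and NCI-H23 with 1 copy each. Cells were treated with 3-fold compound dilutions from 20 μM to 1.02 nM, and proliferation was read by CCK-8 absorbance. % inhibition was calculated against DMSO-treated cells after subtracting the cell-free medium blank.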

In experiment [2] the target is T1, KRAS(G12C) (Homo sapiens, UniProt P01116, G12C). Description: KRAS(G12C) Western blot protein degradation assay in MIA PaCa-2 cells. Format: cell-based. Also on record: host or cells: LU65A. To be noted: 48 hr; for inhibition at 0.1562 µM: 156.2 nM; for inhibition at 0.3125 µM: 312.5 nM; for inhibition at 0.625 µM: 625 nM; for inhibition at 1.25 µM: 1250 nM; for inhibition at 2.5 µM: 2500 nM; for inhibition at 5 µM: 5000 nM; for inhibition at 10 µM: 10,000 nM. The protocol: The following cancer cell lines were employed: BT-474 human breast carcinoma (ATCC, #HTB-20); MIA PaCa-2 human pancreatic carcinoma [2 copies KRAS(G12C)](ATCC, #CRL-1420); NCI-H23 human non-small cell lung cancer [1 copy KRAS(G12C)](ATCC, #CRL-5800); NCI-H358 human non-small cell lung cancer [1 copy KRAS(G12C)](ATCC, #CRL-5807); LU65A human lung carcinoma (Pharmaron, Beijing, China). Cell lines were cultured essentially according to ATCC and Pharmaron recommendations.
T1 sequence (P01116 1-188 isoform P01116-2 G12C): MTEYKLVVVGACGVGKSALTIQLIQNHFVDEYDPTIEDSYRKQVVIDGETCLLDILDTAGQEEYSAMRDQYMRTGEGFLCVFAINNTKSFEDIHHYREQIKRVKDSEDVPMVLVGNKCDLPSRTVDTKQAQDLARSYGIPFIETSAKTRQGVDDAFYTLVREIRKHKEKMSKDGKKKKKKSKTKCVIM
KRAS(G12C) Western Blot Protein Degradation Assay
The MIA PaCa-2 human pancreatic carcinoma cell line and LU65A human lung cancer cell line, which expresses KRAS(G12C), were seeded in 6- or 12-well tissue culture plates, and after 1 hr, test compounds were added at various concentrations and incubated at 37° C./5% CO2 for 48 hr (MIA Paca-2) and 6 hr (LU65A) respectively. Cells were then washed with cold PBS, aspirated and cold RIPA buffer containing a protease/phosphatase inhibitor cocktail was added to lyse cells. After centrifugation, the total protein concentrations of cell lysates were determined using the BCA protein assay. Samples were normalized for equivalent protein concentrations, 5×SDS-PAGE loading buffer added and denatured at 100° C. for 10 min. 20 μl of each sample/well was loaded on a SDS-PAGE gel and electrophoresed for 20 min at 80 V, then 120 V for 1.5 hr. Gels were then electroblotted to nitrocellulose membranes using a wet-transfer method at 250 mA for 2.5 hr. Membranes were incubated with blocking buffer for 1 hr and washed 3 times with TBST for 5 min. Membranes were then incubated with anti-KRAS (Sigma-Aldrich, #SAB1404011) and anti-β-Actin monoclonal antibodies (Cell Signaling Technology, #3700) diluted in blocking buffer at 4° C. overnight per the manufacturer's recommendations. After washing 3 times, blots were incubated with appropriately labeled secondary antibodies for 1 hr at room temperature and washed again. Fluorescence imaging and quantitation was performed using a LI-COR Odyssey. Results was analyzed using GraphPad Prism 7 software. Compound degradation of was determined by the following equation and DC50 values (the concentration at which 50% of the maximal degradation of KRAS occurs) calculated using GraphPad Prism 7 software:
% Inhibition=100−(D−B)/(S−B)*100%. • S: Fluorescence intensity of cells with antibody • D: Fluorescence intensity of compound-treated cells with antibody • B: Fluorescence intensity of cells without antibody

A further experiment concerns the target T2, HSP90a protein (Homo sapiens, UniProt P07900).
T2 construct: purchased BPS Bioscience 50298
Nature of the experiment: HSP90α-binding fluorescent polarization (FP) assay, BODIPY-labeled RNK04010 probe. The note with it: FP competition with RNK04010 (BODIPY-labeled), 5 nM, 300 min at 25° C. Put shortly:
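N-terminal HSP90a construct; tracer 5 nM final (FITC-geldanamycin or BODIPY-RNK04010, a labeled triazolone binder). Compounds 20 μM–5.2 nM, 2.5-fold steps. 25° C, 120 min (FITC) / 300 min (BODIPY). FP readout.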

The target in experiment [3] is T1, KRAS(G12C). Description: KRAS(G12C)/SOS1 homogeneous time-resolved fluorescence (HTRF) assay. Also noted: purchased Cisbio 63ADK000CB16PEG. To be noted: absence of GTP, 4° C. for 3 hr, read-out: KRAS (G12C) binding. In a few lines:
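Three-hour incubation at 4 °C of 3-fold compound dilutions (lowest 1.02 nM) with KRAS(G12C), SOS1 and detection reagents, GTP absent. Disruption of the KRAS(G12C)/SOS1 complex detected by time-resolved fluorescence.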

Experiment [4] addresses T1, KRAS(G12C). Description: KRAS(G12C) Western blot protein degradation assay in LU65A cells. Format: cell-based. Also on record: LU65A human lung cancer cell line, which expresses KRAS(G12C); host or cells: LU65A. To be noted: 6 hr. In a few lines:
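KRAS levels read by fluorescent Western blot (β-actin as reference) on BCA-normalized lysates. Exposure to a compound concentration range at 37 °C lasted 6 hr in LU65A and 48 hr in MIA PaCa-2; DC50 taken as half-maximal degradation concentration.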
A general note: In western blotting, separated proteins are transferred to a membrane and probed.

A value given as a limit tells only on which side of the number the result lay.

A word on the EC50: it is the concentration that produces a half-maximal response. Broadly, the inhibition is the percentage by which the read-out fell short of the control. On to `C=CC(=O)N1CCN(c2nc(OC[C@@H]3CCN(C(=O)C4CCN(Cc5ccc(-n6c(C(N)=O)nnc6-c6cc(C(C)C)c(O)cc6O)cc5)CC4)C3)nc3c2CCN(c2cccc4cccc(Cl)c24)C3)C[C@@H]1CC#N` [Compound 183, 4-(4-((4-((R)-3-(((4-((S)-4-acryloyl-3-(cyanomethyl)piperazin-1-yl)-7-(8-chloronaphthalen-1-yl)-5,6,7,8-tetrahydropyrido[3,4-d]pyrimidin-2-yl)oxy)methyl)pyrrolidine-1-carbonyl)piperidin-1-yl)methyl)phenyl)-5-(2,4-dihydroxy-5-isopropylphenyl)-4H-1,2,4-triazole-3-carboxamide], for which the 50% effective concentration (EC50) in experiment [1] lay within 100 to 1000 nM. On KRAS(G12C) [2], this compound gave an inhibition at 0.1562 µM of less than 33%, an inhibition at 0.3125 µM of less than 33%, an inhibition at 0.625 µM of less than 33% and an inhibition at 1.25 µM of 33 to 66%. On KRAS(G12C) [2], this compound yielded an inhibition at 2.5 µM of 33 to 66%, an inhibition at 5 µM of more than 66% and an inhibition at 10 µM of more than 66%. The same compound returned an IC50 at HSP90a protein of 100 to 1000 nM.

For `C=CC(=O)N1CCN(c2nc(OC[C@@H]3CCN(C(=O)C4CCN(Cc5ccc(-n6c(C(=O)NCC(F)(F)F)nnc6-c6cc(C(C)C)c(O)cc6O)cc5)CC4)C3)nc3c2CCN(c2cccc4cccc(Cl)c24)C3)C[C@@H]1CC#N` [Compound 185, 4-(4-((4-((R)-3-(((4-((S)-4-acryloyl-3-(cyanomethyl)piperazin-1-yl)-7-(8-chloronaphthalen-1-yl)-5,6,7,8-tetrahydropyrido[3,4-d]pyrimidin-2-yl)oxy)methyl)pyrrolidine-1-carbonyl)piperidin-1-yl)methyl)phenyl)-5-(2,4-dihydroxy-5-isopropylphenyl)-N-(2,2,2-trifluoroethyl)-4H-1,2,4-triazole-3-carboxamide], on KRAS(G12C) [3], the IC50 lay in the range of 100 to 1000 nM. Also, in experiment [1], the EC50 was less than 100 nM. On KRAS(G12C) [2], the inhibition at 0.1562 µM was less than 33%, the inhibition at 0.3125 µM is less than 33%, the inhibition at 0.625 µM is less than 33% and the inhibition at 1.25 µM was in the range of 33 to 66%. At KRAS(G12C) [2], this compound came in with an inhibition at 2.5 µM of more than 66%, an inhibition at 5 µM of more than 66% and an inhibition at 10 µM of more than 66%. Moreover, at HSP90a protein, the IC50 lay within 100 to 1000 nM.

The term DC50 denotes the concentration giving 50% degradation. A high value points to a less potent degrader. With `C=CC(=O)N1CCN(c2nc(OC[C@@H]3C[C@H](C(=O)N4CCN(Cc5ccc(-n6c(C(=O)NCC(F)(F)F)nnc6-c6cc(C)c(O)cc6O)cc5)CC4)CN3C)nc3c2CCN(c2cccc4cccc(Cl)c24)C3)C[C@@H]1CC#N` [Compound 347, 4-[4-({4-[(3S,5S)-5-({[7-(8-chloronaphthalen-1-yl)-4-[(3S)-3-(cyanomethyl)-4-(prop-2-enoyl)piperazin-1-yl]-5H,6H,8H-pyrido[3,4-d]pyrimidin-2-yl]oxy}methyl)-1-methylpyrrolidine-3-carbonyl]piperazin-1-yl}methyl)phenyl]-5-(2,4-dihydroxy-5-methylphenyl)-N-(2,2,2-trifluoroethyl)-1,2,4-triazole-3-carboxamide], the IC50 on KRAS(G12C) [3] and at HSP90a protein was less than 100 nM each time. In addition, the EC50 in experiment [1] was 100 to 1000 nM. The same compound yielded a DC50 at KRAS(G12C) [4] of more than 1000 nM.

In the case of `C=CC(=O)N1CCN(c2nc(OC[C@@H]3C[C@H](N4CCC(C(=O)N5CC6(CCN(Cc7ccc(-n8c(O)nnc8-c8cc(C(C)C)c(O)cc8O)cc7)CC6)C5)CC4)CN3C)nc3c2CCN(c2cccc4cccc(Cl)c24)C3)C[C@@H]1CC#N` [Compound 348, 2-[(2S)-4-[7-(8-chloronaphthalen-1-yl)-2-{[(2S,4S)-4-{4-[7-({4-[3-(2,4-dihydroxy-5-isopropylphenyl)-5-hydroxy-1,2,4-triazol-4-yl]phenyl}methyl)-2,7-diazaspiro [3.5]nonane-2-carbonyl]piperidin-1-yl}-1-methylpyrrolidin-2-yl]methoxy}-5H,6-H,8H-pyrido[3,4-d]pyrimidin-4-yl]-1-(prop-2-enoyl)piperazin-2-yl]acetonitrile], the IC50 at KRAS(G12C) [3] and at HSP90a protein was less than 100 nM each time. The compound also returned a 50% effective concentration (EC50) in experiment [1] of 100 to 1000 nM. The DC50 on KRAS(G12C) [4] lay in the range of 100 to 1000 nM.

Consider `C=CC(=O)N1CCN(c2nc(OC[C@@H]3C[C@H](C(=O)NCCOCCOc4ccc(-n5c(O)nnc5-c5cc(CC)c(O)cc5O)cc4)CN3C)nc3c2CCN(c2cccc4cccc(Cl)c24)C3)C[C@@H]1CC#N` [Compound 349, (3S,5S)-5-({[7-(8-chloronaphthalen-1-yl)-4-[(3S)-3-(cyanomethyl)-4-(prop-2-enoyl)piperazin-1-yl]-5H,6H,8H-pyrido[3,4-d]pyrimidin-2-yl]oxy}methyl)-N-[2-(2-{4-[3-(5-ethyl-2,4-dihydroxyphenyl)-5-hydroxy-1,2,4-triazol-4-yl]phenoxy}ethoxy)ethyl]-1-methylpyrrolidine-3-carboxamide], for which the IC50 at KRAS(G12C) [3] and on HSP90a protein was less than 100 nM throughout. The same compound had an EC50 in experiment [1] of more than 1000 nM. Also, the half-maximal degradation concentration (DC50) at KRAS(G12C) [4] lay in the range of 100 to 1000 nM.

Regarding `C=CC(=O)N1CCN(c2nc(OC[C@@H]3C[C@H](N4CCC(C(=O)N5CCC6(CC5)CN(Cc5ccc(-n7c(O)nnc7-c7cc(C(C)C)c(O)cc7O)cc5)C6)CC4)CN3C)nc3c2CCN(c2cccc4cccc(Cl)c24)C3)C[C@@H]1CC#N` [Compound 350, 2-[(2S)-4-[7-(8-chloronaphthalen-1-yl)-2-{[(2S,4S)-4-{4-[2-({4-[3-(2,4-dihydroxy-5-isopropylphenyl)-5-hydroxy-1,2,4-triazol-4-yl]phenyl}methyl)-2,7-diazaspiro [3.5]nonane-7-carbonyl]piperidin-1-yl}-1-methylpyrrolidin-2-yl]methoxy}-5H,6-H,8H-pyrido[3,4-d]pyrimidin-4-yl]-1-(prop-2-enoyl)piperazin-2-yl]acetonitrile], the IC50 at KRAS(G12C) [3] and at HSP90a protein was less than 100 nM each time. This compound came in with an EC50 in experiment [1] of 100 to 1000 nM. At KRAS(G12C) [4], this compound displayed a 50% degradation concentration (DC50) of 100 to 1000 nM.

Take `C=CC(=O)N1CCN(c2nc(OCCN3CCN(Cc4ccc(-n5c(O)nnc5-c5cc(C(C)C)c(O)cc5O)cc4)CC3)nc3c2CCN(c2cccc4cccc(Cl)c24)C3)C[C@@H]1CC#N` [Compound 351, 2-[(2S)-4-[7-(8-chloronaphthalen-1-yl)-2-{2-[4-({4-[3-(2,4-dihydroxy-5-isopropylphenyl)-5-hydroxy-1,2,4-triazol-4-yl]phenyl}methyl)piperazin-1-yl]ethoxy}-5H,6-H,8H-pyrido[3,4-d]pyrimidin-4-yl]-1-(prop-2-enoyl)piperazin-2-yl]acetonitrile]: the IC50 on KRAS(G12C) [3] and on HSP90a protein was less than 100 nM in each case. In experiment [1], the half-maximal effective concentration (EC50) lay within 100 to 1000 nM. On KRAS(G12C) [4], this compound yielded a 50% degradation concentration (DC50) of 100 to 1000 nM.
